These results are taken from patent US20260022142A1, “MACROCYCLIC IMMUNOMODULATORS” (Bristol-Myers Squibb Company, priority 2022, published 2026).

pIC50: −log10 of the molar value. Bridge positions count the residues as written; N and C are the ends. Square brackets hold non-standard residues; d marks the D form. Peptide text beside a SMILES is read from it. * marks the point of attachment. Ala(morpholin-4-yl) = N[C@@H](CN1CCOCC1)C(=O)O; Bip = N[C@@H](Cc1ccc(-c2ccccc2)cc1)C(=O)O; NH(CH2)14COOH = O=C(O)CCCCCCCCCCCCCCN*; Phe(3-Me) = Cc1cccc(C[C@H](N)C(=O)O)c1; Abu(3S-NH2) = C[C@H](N)[C@H](N)C(=O)O; Val(3-OH) = CC(C)(O)[C@H](N)C(=O)O; hArg = N=C(N)NCCCC[C@H](N)C(=O)O; hPhe = N[C@@H](CCc1ccccc1)C(=O)O; 4Pal = N[C@@H](Cc1ccncc1)C(=O)O; Cha = N[C@@H](CC1CCCCC1)C(=O)O; Cba = N[C@@H](CC1CCC1)C(=O)O; dDab = NCC[C@@H](N)C(=O)O; hSer = N[C@@H](CCO)C(=O)O; Carboxymethyl = O=C(O)C*; Orn = NCCC[C@H](N)C(=O)O; Aun = NCCCCCCCCCCC(=O)O; Dab = NCC[C@H](N)C(=O)O

The target in this test is T1, PD-1/PD-L1 interaction (PE-labeled human PD-L1-Ig binding to Jurkat cell line over-expressing human PD-1) (Homo sapiens, UniProt Q15116).
T1 construct: expressed in transfected cells; host or cells: Jurkat
T1 sequence (Q15116 25-288): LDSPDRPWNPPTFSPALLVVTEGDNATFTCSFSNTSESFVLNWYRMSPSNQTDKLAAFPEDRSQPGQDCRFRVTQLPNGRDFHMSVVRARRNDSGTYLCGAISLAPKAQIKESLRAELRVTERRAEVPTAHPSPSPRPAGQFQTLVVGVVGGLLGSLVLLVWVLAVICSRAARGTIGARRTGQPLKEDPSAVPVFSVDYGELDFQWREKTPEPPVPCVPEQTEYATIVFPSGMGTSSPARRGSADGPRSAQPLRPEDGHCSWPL
The experiment in a line: Jurkat-PD-1 Cell Binding High-Content Screening Assay (CBA). It counts as cell-based. To be noted: Jurkat cell line over-expressing human PD-1; PE-labeled PD-L1-Ig 20 nM final; read-out: Jurkat hPD1-PDL1 IC50. A digest of the protocol: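 Jurkat-hPD-1 cells, DMEM/10% FCS; cpd 2 h 37° C; PE-PD-L1-Ig 20 nM final, 1 h; 4% PFA fix + Hoechst 33342, 3× dPBS wash; high-content imaging read-out.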
Take `Cc1cccc(C[C@@H]2NC(=O)[C@H](CC(=O)O)NC(=O)[C@H](Cc3ccc(OCC(=O)O)cc3)NC(=O)[C@H](Cc3ccncc3)NC(=O)CSC[C@@H](C(=O)N[C@@H](CCN)C(=O)NCCCCCCCCCCCCCCC(=O)O)NC(=O)[C@H](CO)NC(=O)[C@H](C(C)(C)O)NC(=O)[C@H](CC3CCCCC3)NC(=O)[C@H](CCN)NC(=O)[C@@H](CC(C)C)NC(=O)[C@H](CCCN)NC(=O)[C@H](Cc3ccc(OCC(=O)O)cc3)NC(=O)[C@H](Cc3ccc(-c4ccccc4)cc3)NC(=O)[C@H](Cc3ccc(OCC(=O)O)cc3)NC2=O)c1` [Compound 2227] ({CH2CO}-[4Pal]Y(Carboxymethyl)D[Phe(3-Me)]Y(Carboxymethyl)[Bip]Y(Carboxymethyl)[Orn][dL][Dab][Cha][Val(3-OH)]SC[Dab]-{NH(CH2)14COOH}; thioether N-14): the pIC50 – broadly, the IC50 on a negative log10 scale, so that one unit is a factor of ten – was 6.69. For `Cc1cccc(C[C@@H]2NC(=O)[C@H](CC(=O)O)NC(=O)[C@H](Cc3ccc(OCC(=O)O)cc3)NC(=O)[C@H](CCCNC(=N)N)NC(=O)CSC[C@@H](C(=O)N[C@@H](CCN)C(=O)NCCCCCCCCCCCCCCC(=O)O)NC(=O)[C@H](CO)NC(=O)[C@H](C(C)(C)O)NC(=O)[C@H](CC3CCCCC3)NC(=O)[C@H](CCN)NC(=O)[C@@H](CC(C)C)NC(=O)[C@H](CCCN)NC(=O)[C@H](Cc3ccc(OCC(=O)O)cc3)NC(=O)[C@H](Cc3ccc(-c4ccccc4)cc3)NC(=O)[C@H](Cc3ccc(OCC(=O)O)cc3)NC2=O)c1` [Compound 2228] ({CH2CO}-RY(Carboxymethyl)D[Phe(3-Me)]Y(Carboxymethyl)[Bip]Y(Carboxymethyl)[Orn][dL][Dab][Cha][Val(3-OH)]SC[Dab]-{NH(CH2)14COOH}; thioether N-14) the value was 7.11.

For `COc1ccc(C[C@@H]2NC(=O)[C@H](Cc3cccc(C)c3)NC(=O)[C@H](CC(=O)O)NC(=O)[C@H](Cc3ccc(OCC(=O)O)cc3)NC(=O)[C@H](Cc3ccncc3)NC(=O)CSC[C@@H](C(=O)N[C@@H](CCN)C(=O)NCCCCCCCCCCC(=O)O)NC(=O)[C@H](CO)NC(=O)[C@H](C(C)(C)O)NC(=O)[C@H](CC3CCCCC3)NC(=O)[C@H](CCN)NC(=O)[C@@H](CC(C)C)NC(=O)[C@H](CCCN)NC(=O)[C@H](Cc3ccc(OCC(=O)O)cc3)NC(=O)[C@H](Cc3ccc(-c4ccccc4)cc3)NC2=O)cc1` [Compound 2229] ({CH2CO}-[4Pal]Y(Carboxymethyl)D[Phe(3-Me)]Y(Me)[Bip]Y(Carboxymethyl)[Orn][dL][Dab][Cha][Val(3-OH)]SC[Dab][Aun]-OH; thioether N-14), the pIC50 is 9.22.

As for `Cc1cccc(C[C@@H]2NC(=O)[C@H](CC(=O)O)NC(=O)[C@H](Cc3ccc(OCC(=O)O)cc3)NC(=O)[C@H](CCO)NC(=O)CSC[C@@H](C(=O)N[C@@H](CCN)C(=O)NCCCCCCCCCCC(=O)O)NC(=O)[C@H](CO)NC(=O)[C@H](C(C)(C)O)NC(=O)[C@H](CC3CCCCC3)NC(=O)[C@H](CCN)NC(=O)[C@@H](CC(C)C)NC(=O)[C@H](CCCN)NC(=O)[C@H](Cc3ccc(OCC(=O)O)cc3)NC(=O)[C@H](Cc3ccc(-c4ccccc4)cc3)NC(=O)[C@H](Cc3ccc(OCC(=O)O)cc3)NC2=O)c1` [Compound 2230] ({CH2CO}-[hSer]Y(Carboxymethyl)D[Phe(3-Me)]Y(Carboxymethyl)[Bip]Y(Carboxymethyl)[Orn][dL][Dab][Cha][Val(3-OH)]SC[Dab][Aun]-OH; thioether N-14), the pIC50 is 8.66.

For the compound `Cc1cccc(C[C@@H]2NC(=O)[C@H](CC(=O)O)NC(=O)[C@H](Cc3ccc(OCC(=O)O)cc3)NC(=O)[C@H](CCc3ccccc3)NC(=O)CSC[C@@H](C(=O)N[C@@H](CCN)C(=O)NCCCCCCCCCCC(=O)O)NC(=O)[C@H](CO)NC(=O)[C@H](C(C)(C)O)NC(=O)[C@H](CC3CCCCC3)NC(=O)[C@H](CCN)NC(=O)[C@@H](CC(C)C)NC(=O)[C@H](CCCN)NC(=O)[C@H](Cc3ccc(OCC(=O)O)cc3)NC(=O)[C@H](Cc3ccc(-c4ccccc4)cc3)NC(=O)[C@H](Cc3ccc(OCC(=O)O)cc3)NC2=O)c1` [Compound 2231] ({CH2CO}-[hPhe]Y(Carboxymethyl)D[Phe(3-Me)]Y(Carboxymethyl)[Bip]Y(Carboxymethyl)[Orn][dL][Dab][Cha][Val(3-OH)]SC[Dab][Aun]-OH; thioether N-14), the pIC50 is 7.82. On to `Cc1cccc(C[C@@H]2NC(=O)[C@H](CC(=O)O)NC(=O)[C@H](Cc3ccc(OCC(=O)O)cc3)NC(=O)[C@@H](CCCNC(=N)N)NC(=O)CSC[C@@H](C(=O)N[C@@H](CCN)C(=O)NCCCCCCCCCCC(=O)O)NC(=O)[C@H](CO)NC(=O)[C@H](C(C)(C)O)NC(=O)[C@H](CC3CCCCC3)NC(=O)[C@H](CCN)NC(=O)[C@@H](CC(C)C)NC(=O)[C@H](CCCN)NC(=O)[C@H](Cc3ccc(OCC(=O)O)cc3)NC(=O)[C@H](Cc3ccc(-c4ccccc4)cc3)NC(=O)[C@H](Cc3ccc(OCC(=O)O)cc3)NC2=O)c1` [Compound 2232] ({CH2CO}-[dR]Y(Carboxymethyl)D[Phe(3-Me)]Y(Carboxymethyl)[Bip]Y(Carboxymethyl)[Orn][dL][Dab][Cha][Val(3-OH)]SC[Dab][Aun]-OH; thioether N-14), for which the pIC50 is 6.62.

Regarding `Cc1cccc(C[C@@H]2NC(=O)[C@H](CC(=O)O)NC(=O)[C@H](Cc3ccc(OCC(=O)O)cc3)NC(=O)[C@H](CC3CCC3)NC(=O)CSC[C@@H](C(=O)N[C@@H](CCN)C(=O)NCCCCCCCCCCC(=O)O)NC(=O)[C@H](CO)NC(=O)[C@H](C(C)(C)O)NC(=O)[C@H](CC3CCCCC3)NC(=O)[C@H](CCN)NC(=O)[C@@H](CC(C)C)NC(=O)[C@H](CCCN)NC(=O)[C@H](Cc3ccc(OCC(=O)O)cc3)NC(=O)[C@H](Cc3ccc(-c4ccccc4)cc3)NC(=O)[C@H](Cc3ccc(OCC(=O)O)cc3)NC2=O)c1` [Compound 2233] ({CH2CO}-[Cba]Y(Carboxymethyl)D[Phe(3-Me)]Y(Carboxymethyl)[Bip]Y(Carboxymethyl)[Orn][dL][Dab][Cha][Val(3-OH)]SC[Dab][Aun]-OH; thioether N-14), the pIC50 is 8.30. For `Cc1cccc(C[C@@H]2NC(=O)[C@H](CC(=O)O)NC(=O)[C@H](Cc3ccc(OCC(=O)O)cc3)NC(=O)[C@H](CCCCNC(=N)N)NC(=O)CSC[C@@H](C(=O)N[C@@H](CCN)C(=O)NCCCCCCCCCCC(=O)O)NC(=O)[C@H](CO)NC(=O)[C@H](C(C)(C)O)NC(=O)[C@H](CC3CCCCC3)NC(=O)[C@H](CCN)NC(=O)[C@@H](CC(C)C)NC(=O)[C@H](CCCN)NC(=O)[C@H](Cc3ccc(OCC(=O)O)cc3)NC(=O)[C@H](Cc3ccc(-c4ccccc4)cc3)NC(=O)[C@H](Cc3ccc(OCC(=O)O)cc3)NC2=O)c1` [Compound 2234] ({CH2CO}-[hArg]Y(Carboxymethyl)D[Phe(3-Me)]Y(Carboxymethyl)[Bip]Y(Carboxymethyl)[Orn][dL][Dab][Cha][Val(3-OH)]SC[Dab][Aun]-OH; thioether N-14) the value was 8.59.

`Cc1cccc(C[C@@H]2NC(=O)[C@H](CC(=O)O)NC(=O)[C@H](Cc3ccc(OCC(=O)O)cc3)NC(=O)[C@H](CN3CCOCC3)NC(=O)CSC[C@@H](C(=O)N[C@@H](CCN)C(=O)NCCCCCCCCCCC(=O)O)NC(=O)[C@H](CO)NC(=O)[C@H](C(C)(C)O)NC(=O)[C@H](CC3CCCCC3)NC(=O)[C@H](CCN)NC(=O)[C@@H](CC(C)C)NC(=O)[C@H](CCCN)NC(=O)[C@H](Cc3ccc(OCC(=O)O)cc3)NC(=O)[C@H](Cc3ccc(-c4ccccc4)cc3)NC(=O)[C@H](Cc3ccc(OCC(=O)O)cc3)NC2=O)c1` [Compound 2235] ({CH2CO}-[Ala(morpholin-4-yl)]Y(Carboxymethyl)D[Phe(3-Me)]Y(Carboxymethyl)[Bip]Y(Carboxymethyl)[Orn][dL][Dab][Cha][Val(3-OH)]SC[Dab][Aun]-OH; thioether N-14): the pIC50 was 9.05. For `Cc1cccc(C[C@@H]2NC(=O)[C@H](CC(=O)O)NC(=O)[C@H](Cc3ccc(OCC(=O)O)cc3)NC(=O)[C@@H](CCN)NC(=O)CSC[C@@H](C(=O)N[C@@H](CCN)C(=O)NCCCCCCCCCCC(=O)O)NC(=O)[C@H](CO)NC(=O)[C@H](C(C)(C)O)NC(=O)[C@H](CC3CCCCC3)NC(=O)[C@H](CCN)NC(=O)[C@@H](CC(C)C)NC(=O)[C@H](CCCN)NC(=O)[C@H](Cc3ccc(OCC(=O)O)cc3)NC(=O)[C@H](Cc3ccc(-c4ccccc4)cc3)NC(=O)[C@H](Cc3ccc(OCC(=O)O)cc3)NC2=O)c1` [Compound 2236] ({CH2CO}-[dDab]Y(Carboxymethyl)D[Phe(3-Me)]Y(Carboxymethyl)[Bip]Y(Carboxymethyl)[Orn][dL][Dab][Cha][Val(3-OH)]SC[Dab][Aun]-OH; thioether N-14) the value was 6.73; for `Cc1cccc(C[C@@H]2NC(=O)[C@H](CC(=O)O)NC(=O)[C@H](Cc3ccc(OCC(=O)O)cc3)NC(=O)[C@H]([C@H](C)N)NC(=O)CSC[C@@H](C(=O)N[C@@H](CCN)C(=O)NCCCCCCCCCCC(=O)O)NC(=O)[C@H](CO)NC(=O)[C@H](C(C)(C)O)NC(=O)[C@H](CC3CCCCC3)NC(=O)[C@H](CCN)NC(=O)[C@@H](CC(C)C)NC(=O)[C@H](CCCN)NC(=O)[C@H](Cc3ccc(OCC(=O)O)cc3)NC(=O)[C@H](Cc3ccc(-c4ccccc4)cc3)NC(=O)[C@H](Cc3ccc(OCC(=O)O)cc3)NC2=O)c1` [Compound 2237] ({CH2CO}-[Abu(3S-NH2)]Y(Carboxymethyl)D[Phe(3-Me)]Y(Carboxymethyl)[Bip]Y(Carboxymethyl)[Orn][dL][Dab][Cha][Val(3-OH)]SC[Dab][Aun]-OH; thioether N-14), 8.59; for `Cc1cccc(C[C@@H]2NC(=O)[C@H](CC(=O)O)NC(=O)[C@H](Cc3ccc(OCC(=O)O)cc3)NC(=O)[C@H](CCCCN)NC(=O)CSC[C@@H](C(=O)N[C@@H](CCN)C(=O)NCCCCCCCCCCC(=O)O)NC(=O)[C@H](CO)NC(=O)[C@H](C(C)(C)O)NC(=O)[C@H](CC3CCCCC3)NC(=O)[C@H](CCN)NC(=O)[C@@H](CC(C)C)NC(=O)[C@H](CCCN)NC(=O)[C@H](Cc3ccc(OCC(=O)O)cc3)NC(=O)[C@H](Cc3ccc(-c4ccccc4)cc3)NC(=O)[C@H](Cc3ccc(OCC(=O)O)cc3)NC2=O)c1` [Compound 2238] ({CH2CO}-KY(Carboxymethyl)D[Phe(3-Me)]Y(Carboxymethyl)[Bip]Y(Carboxymethyl)[Orn][dL][Dab][Cha][Val(3-OH)]SC[Dab][Aun]-OH; thioether N-14), 7.95.
